Data published in the supplement of paper PMC10307832.

How the values were obtained:
Test in all cases: relative viability (nuclei count vs DMSO), 5 days (fraction); higher = more cells survive
[1] = compound: COc1cc2nc(N3CCCN(C)CC3)nc(NC3CCN(Cc4ccccc4)CC3)c2cc1OC + CCNC(=O)c1noc(-c2cc(C(C)C)c(O)cc2O)c1-c1ccc(CN2CCOCC2)cc1 [Luminespib] (partner 0.01 µM)
Procedure, shortened: (§1)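 Nuclei were stained with Hoechst during a one-step fixation (final 0.05% Triton X-100, 1% formaldehyde, 1 ug/ml Hoechst) carried out 5 days after dosing, then counted on 4× images. The cells, lung cancer lines in 1536-well plates, had been dosed by pin tool the day after seeding with one drug alone or a fixed anchor-drug dose plus five library-drug doses (not always all listed) in √10 steps. Relative viability is the nuclei count in treated wells divided by that in vehicle wells, and each value is the median of duplicate plates.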

[2] = compound: COc1cc2nc(N3CCCN(C)CC3)nc(NC3CCN(Cc4ccccc4)CC3)c2cc1OC + C[C@@H](Oc1cc(-c2cnn(C3CCNCC3)c2)cnc1N)c1c(Cl)ccc(F)c1Cl [Crizotinib] (partner 1 µM)
Procedure, shortened: as §1

[3] = compound: Cc1cc([C@@H](C)Nc2ccccc2C(=O)O)c2nc(N3CCOCC3)cc(=O)n2c1 [AZD6482] + COc1cccc2cc(-c3nc([C@H]4CC[C@H](C(=O)O)CC4)n4ncnc(N)c34)[nH]c12 [OSI-027] (partner 0.5 µM)
Procedure, shortened: as §1

[4] = compound: COc1cc2nc(N3CCCN(C)CC3)nc(NC3CCN(Cc4ccccc4)CC3)c2cc1OC + Nc1nc2[nH]cc(CCc3ccc(C(=O)N[C@@H](CCC(=O)O)C(=O)O)cc3)c2c(=O)[nH]1 [Pemetrexed] (partner 0.2 µM)
Procedure, shortened: as §1

Row | Cell Line | relative viability ([1]; first compound 0.2 µM) | relative viability ([1]; first compound 0.6325 µM) | relative viability ([1]; first compound 2 µM) | relative viability ([1]; first compound 6.325 µM) | relative viability ([2]; first compound 0.2 µM) | relative viability ([2]; first compound 0.6325 µM) | relative viability ([2]; first compound 2 µM) | relative viability ([2]; first compound 6.325 µM) | relative viability ([3]; first compound 0.08 µM) | relative viability ([3]; first compound 0.253 µM) | relative viability ([3]; first compound 0.8 µM) | relative viability ([3]; first compound 2.53 µM) | relative viability ([3]; first compound 8 µM) | relative viability ([4]; first compound 0.2 µM) | relative viability ([4]; first compound 0.6325 µM) | relative viability ([4]; first compound 2 µM) | relative viability ([4]; first compound 6.325 µM)
1 | NCI-H1993 | 0.818 | 0.719 | 0.923 | 0.867 | 0.796 | 0.839 | 0.882 | 0.834 | 0.502 | 0.521 | 0.516 | 0.529 | 0.534 | 0.602 | 0.644 | 0.579 | 0.549
2 | NCI-H2009 | 1.05 | 1.08 | 1.06 | 0.937 | 1.05 | 0.923 | 1.06 | 0.874 | 0.56 | 0.601 | 0.555 | 0.224 | 0.388 | 1 | 0.972 | 1.03 | 0.943
3 | NCI-H2023 | 0.818 | 0.646 | 0.637 | 0.134 | 0.616 | 0.592 | 0.686 | 0.156 | 0.398 | 0.336 | 0.341 | 0.237 | 0.245 | 0.161 | 0.254 | 0.248 | 0.144
4 | NCI-H2085 | 0.458 | 0.393 | 0.373 | 0.404 | 0.866 | 0.842 | 0.859 | 0.776 | 0.523 | 0.478 | 0.473 | 0.28 | 0.331 | 0.827 | 1.02 | 0.943 | 0.87
5 | NCI-H2087 | 0.188 | 0.162 | 0.364 | 0.136 | 0.929 | 0.646 | 0.777 | 0.716 | 0.495 | 0.43 | 0.46 |  | 0.332 | 0.663 | 0.622 | 0.686 | 0.656
6 | NCI-H2126 | 0.877 | 0.864 | 0.754 | 0.815 | 0.978 | 0.969 | 1.08 | 0.996 | 0.647 | 0.652 | 0.704 | 0.403 | 0.485 | 0.74 | 0.623 | 0.637 | 0.644
7 | NCI-H2170 | 0.887 | 0.648 | 0.88 | 0.69 | 1.19 | 1.17 | 1.23 | 1.24 | 0.66 | 0.631 | 0.612 | 0.531 | 0.677 | 0.256 | 0.26 | 0.271 | 0.274
8 | NCI-H2228 | 0.162 | 0.12 | 0.138 | 0.101 | 0.529 | 0.396 | 0.479 | 0.334 |  | 0.316 | 0.548 | 0.358 | 0.445 | 0.32 | 0.347 | 0.336 | 0.26
9 | NCI-H2347 | 0.57 | 0.521 | 0.446 | 0.524 | 0.794 | 0.675 | 0.634 | 0.626 | 0.222 | 0.268 | 0.317 | 0.194 | 0.223 | 0.394 | 0.4 | 0.494 | 0.538
10 | NCI-H2405 | 0.778 | 0.673 | 0.75 | 0.786 | 0.869 | 0.825 | 0.927 | 0.894 | 0.46 |  | 0.595 | 0.369 | 0.336 | 1.02 | 1.12 | 1.11 | 1.05
11 | NCI-H3122 | 0.0795 | 0.0919 | 0.0888 | 0.0791 | 0.256 | 0.305 | 0.293 | 0.267 | 1.01 | 1.01 | 0.89 |  | 0.465 | 0.206 | 0.198 | 0.19 | 0.2
12 | PC-3 [JPC-3] | 0.753 | 0.675 | 0.745 | 0.585 | 0.972 | 0.974 | 1.11 | 0.869 | 0.654 | 0.732 | 0.723 | 0.502 | 0.633 | 0.972 | 1.15 | 1.11 | 1.01
13 | PC-14 | 0.123 | 0.242 | 0.162 | 0.122 | 0.932 | 0.883 | 1.08 | 0.83 | 0.723 | 1.04 | 0.841 | 0.658 | 0.954 | 0.133 | 0.153 | 0.118 | 0.0737
14 | RERF-LC-KJ | 1.15 | 1.13 | 1.33 | 0.903 | 0.721 | 0.82 | 0.872 | 0.853 | 0.547 | 0.496 | 0.458 | 0.497 | 0.399 | 0.419 | 0.455 | 0.464 | 0.447
15 | SK-LU-1 | 0.184 | 0.213 | 0.197 | 0.178 | 0.858 | 0.943 | 0.92 | 0.536 |  | 0.319 | 0.347 | 0.246 | 0.214 | 0.952 | 0.949 | 1.03 | 0.889
16 | SK-MES-1 | 0.836 | 0.702 | 0.889 | 0.129 | 0.97 | 0.962 | 1.04 | 1.06 | 0.502 | 0.554 | 0.417 | 0.302 | 0.293 | 1.06 | 0.887 | 0.904 | 0.495
17 | SW 1573 | 0.179 | 0.27 | 0.356 | 0.152 | 0.893 | 0.845 | 0.88 | 0.819 | 0.662 | 0.52 | 0.558 | 0.341 | 0.347 | 0.797 | 0.682 | 0.733 | 0.623
18 | UMC-11 | 1.06 | 1.08 | 1.05 | 0.816 | 0.614 | 0.498 | 0.673 | 0.44 | 0.448 | 0.464 | 0.497 | 0.459 | 0.47 | 0.86 | 0.773 | 0.834 | 0.588
